From patent US20130109693A1, “DERIVATIVES OF PYRIDO [3,2-D] PYRIMIDINE, METHODS FOR PREPARATION THEREOF AND THERAPEUTIC USES THEREOF” (UNIVERSITE D'ORLEANS, priority 2010, published 2013)

What was measured:
Huh7 = assay: Cytotoxicity on human cells, Huh7 (liver); assay type: cell-based; settings: Huh-7, human cells, exposed 24 h and 48 h, 0.1 to 25 μM
In short: (§1)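 4.10^3 cells/well, 24 h attachment; cpd 0.1–25 μM, 24 h + 48 h; 4% PFA fix, Hoechst nuclei, automated imaging count; MTS reduction for viability; DMSO ≤1%.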

Caco = assay: Cytotoxicity on human cells, Caco (colon); assay type: cell-based; settings: exposed 24 h and 48 h, 0.1 to 25 μM
In short: as §1

MDA-MB 231 = assay: Cytotoxicity on human cells, MDA-MB 231 (breast); assay type: cell-based; settings: MDA-MB-231, human cells, exposed 24 h and 48 h, 0.1 to 25 μM
In short: as §1

HCT 116 = assay: Cytotoxicity on human cells, HCT 116 (colon); assay type: cell-based; settings: exposed 24 h and 48 h, 0.1 to 25 μM
In short: as §1

PC3 = assay: Cytotoxicity on human cells, PC3 (prostate); assay type: cell-based; settings: PC-3, human cells, exposed 24 h and 48 h, 0.1 to 25 μM
In short: as §1

NCI = assay: Cytotoxicity on human cells, NCI (lung); assay type: cell-based; settings: exposed 24 h and 48 h, 0.1 to 25 μM
In short: as §1

fibroblast = assay: Cytotoxicity on human cells, fibroblast; assay type: cell-based; settings: exposed 24 h and 48 h, 0.1 to 25 μM
In short: as §1

DYRK1A = DYRK1A (Homo sapiens, UniProt Q13627); assay: DYRK1A kinase inhibition (Woodtide substrate, buffer A); assay type: biochemical; settings: 15 μM ATP, 30° C., recombinant GST fusion; read-out: IC50 Kinases DYRK1A
In short: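 Kinase activity measured in buffer A (10 mM MgCl2, 1 mM EGTA, 1 mM DTT, 25 mM Tris-HCl pH 7.5, 50 μg/mL heparin) at 30° C with 15 μM final ATP. Blanks subtracted; activity expressed as % of maximum activity without inhibitor, with DMSO dilutions as controls.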

CDK5 = target: T1, CDK5 (Homo sapiens, UniProt Q00535); assay: CDK5 kinase inhibition (histone H1, [γ-33P] ATP, buffer C); assay type: biochemical; settings: 15 μM ATP, 30° C., recombinant; read-out: IC50 Kinases CDK5
T1 construct: made in house
T1 sequence (Q00535 whole entry): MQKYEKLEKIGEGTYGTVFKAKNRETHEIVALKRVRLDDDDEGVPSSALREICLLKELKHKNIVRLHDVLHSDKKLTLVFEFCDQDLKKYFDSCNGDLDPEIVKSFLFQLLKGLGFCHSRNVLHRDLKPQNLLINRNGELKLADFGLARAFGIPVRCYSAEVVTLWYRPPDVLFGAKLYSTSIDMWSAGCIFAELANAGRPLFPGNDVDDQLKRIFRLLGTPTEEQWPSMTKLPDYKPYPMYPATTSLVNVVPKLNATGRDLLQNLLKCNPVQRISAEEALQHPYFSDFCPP
T1 sequence (Q15078 99-307 partner limits assumed): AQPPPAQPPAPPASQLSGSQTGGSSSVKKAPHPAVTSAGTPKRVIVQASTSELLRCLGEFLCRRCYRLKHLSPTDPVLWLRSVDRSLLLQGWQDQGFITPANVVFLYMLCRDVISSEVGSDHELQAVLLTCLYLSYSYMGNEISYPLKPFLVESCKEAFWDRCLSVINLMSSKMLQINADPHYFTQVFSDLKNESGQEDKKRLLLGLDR
Method: (§2) The activities for inhibiting protein kinases of the compounds of the invention are tested according to the following general procedure:
Buffer C: 60 mM β-glycerophosphate, 15 mM p-nitrophenyl-phosphate, 25 mM Mops (pH 7.2), 5 mM EGTA, 15 mM MgCl2, 1 mM DTT, 1 mM of sodium vanadate
(§3) The kinase activities are dosed in buffers A or C, at 30° C., at a final concentration of ATP of 15 μM. The values of the blanks were subtracted and the activities are expressed as a % of the maximum activity, i.e. in the absence of inhibitors. The controls were carried out with suitable dilutions of DMSO.
CDK5 (humane, recombinant) was prepared as described earlier (Leclerc, S.; Garnier, M.; Hoessel, R.; Marko, D.; Bibb, J. A.; Snyder, G. L.; Greengard, P.; Biernat, J.; Mandelkow, E.-M.; Eisenbrand, G.; Meijer, L. Indirubins inhibit glycogen synthase kinase-3β and CDK5/p25, two kinases involved in abnormal tau phosphorylation in Alzheimer's disease—A property common to most CDK inhibitors? J. Biol. Chem. 2001, 276, 251-260; Bach S, Knockaert M, Reinhardt J, Lozach O, Schmitt S, Baratte B et al. (2005). Roscovitine targets, protein kinases and pyridoxal kinase. J. Biol Chem 280: 31208-31219). Its kinase activity was analyzed in the buffer C, with 1 mg of histone H1/mL, in the presence of 15 μM of [γ-^33P] ATP (3,000 Ci/mmol; 10 mCi/mL) in a final volume of 30 μl. After 30 mins of incubation at 30° C., 25 μl of supernatant aliquots were deposited on 2.5×3 cm pieces of phosphocellulose Whatman P81 paper, and after 20 seconds, the filters were washed five times (for at least 5 minutes every time) in a solution of 10 mL phosphoric acid/liter of water. The wet filters were counted in the presence of 1 mL of ACS scintillator fluid (Amersham).

GSK-3αβ = GSK-3αβ kinase inhibition (GS-1 substrate, buffer A); assay type: biochemical; settings: 15 μM ATP, 30° C., native, pig brain; read-out: IC50 Kinases GSK3
Method: as §2
Buffer A: 10 mM MgCl2, 1 mM EGTA, 1 mM DTT, 25 mM Tris-HCl pH 7.5 and 50 μg heparin/mL.
as §3
GSK-3αβ (from pig brain, native) was assayed by using a specific substrate of GSK-3 (GS-1: […]pEDEEE)(Sp represents a phosphorylated serine) (Primot, A., Baratte, B., Gompel, M., Borgne, A., Liabeuf, S., Romette, J. L., Costantini, F. and Meijer, L., 2000. Purification of GSK-3 by affinity chromatography on immobilized axin. Protein Expr. & Purif. 20 (3), 394-404). GS-1 was synthesized by Millegen (Labège, France). Its kinase activity was analyzed in the buffer A, with 1 mg of histone H1/mL, in the presence of 15 μM of [γ-^33P] ATP (3,000 Ci/mmol; 10 mCi/mL) in a final volume of 30 μl. After 30 mins of incubation at 30° C., 25 μl of supernatant aliquots were deposited on 2.5×3 cm pieces of phosphocellulose Whatman P81papier, and after 20 seconds, the filters were washed five times (for at least 5 minutes every time) in a solution of 10 mL of phosphoric acid/liter of water. The wet filters were counted in the presence of 1 mL of ACS scintillator fluid (Amersham).

Row | SMILES | IC50 (Huh7) [µM] | IC50 (Caco) [µM] | IC50 (MDA-MB 231) [µM] | IC50 (HCT 116) [µM] | IC50 (PC3) [µM] | IC50 (NCI) [µM] | IC50 (fibroblast) [µM] | IC50 (DYRK1A) [µM] | IC50 (CDK5) [nM] | IC50 (GSK-3αβ) [µM] | melting point [°C]
1 | Cc1ncccc1Nc1cnc2cnc(-c3ccc(O)cc3)nc2c1 [Compound 53, 2-(4-Hydroxyphenyl)-7-(3-(2-methyl)-pyridinylamino)-pyrido[3,2-d]pyrimidine] | 12 | 15 | 9 | > 25 | 6 | 15 | 10 | > 10 | > 10000 | > 10 | 186 to 188
2 | Oc1ccccc1-c1cnc2cnc(-c3ccccc3O)nc2c1 [Compound 22, 2,7-Di-(2-hydroxyphenyl)-pyrido[3,2-d]pyrimidine] | > 25 | > 25 | > 25 | > 25 | > 25 | 2 | > 25 | > 10 | > 10000 | > 10 | 239 to 240
3 | Oc1ccc(-c2ncc3ncc(Nc4ncccn4)cc3n2)cc1 [Compound 52, 2-(4-Hydroxyphenyl)-7-(2-pyrimidinylamino)-pyrido[3,2-d]pyrimidine] | 25 | 5 | 2.5 | 2 | 1.5 | 1.5 | 2 | > 10 | 7600 | > 10 | > 268
4 | Oc1ccc(Nc2ncc3ncc(-c4ccc(O)cc4)cc3n2)cc1 [Compound 62, 2-(4-Hydroxyphenylamino)-7-(4-hydroxyphenyl)-pyrido[3,2-d]pyrimidine] | 12 | 15 | 10 | 12 | 15 | 4 | 5 | > 10 | 840 | 7.1 | > 268
5 | Oc1ccc(Nc2ncc3ncc(Cl)cc3n2)cc1 [Compound 59, 7-Chloro-2-(4-hydroxyphenylamino)-pyrido[3,2-d]pyrimidine] | 12 | > 25 | 6 | 2 | 12 | 10 | 5 | > 10 | 1100 | > 10 | 232 to 234
6 | N#Cc1ccc(Nc2cnc3cnc(-c4ccc(O)cc4)nc3c2)nc1 [Compound 54, 2-(4-Hydroxyphenyl)-7-(2-(5-cyano)pyridinylamino)-pyrido[3,2-d]pyrimidine] | > 25 | > 25 | 12 | > 25 | > 25 | 20 | > 25 | > 10 | 4000 | 5.5 | > 268
7 | Oc1ccc(-c2ncc3ncc(Nc4ccon4)cc3n2)cc1 [Compound 48, 2-(4-Hydroxyphenyl)-7-(3-isoxazolamino)-pyrido[3,2-d]pyrimidine] | 25 | 20 | 12 | 9 | 20 | 3 | 15 | 2 | 2100 | > 10 | > 268
8 | Oc1ccc(-c2ncc3ncc(-c4cccs4)cc3n2)cc1 [Compound 38, 2-(4-Hydroxyphenyl)-7-(2-thiophyl)-pyrido[3,2-d]pyrimidine] | > 25 | > 25 | > 25 | 4 | 25 | 3 | 2 | > 10 | 110 | > 10 | 240 to 242
9 | COc1ccc(Nc2cnc3cnc(-c4ccc(O)cc4)nc3c2)cc1 [Compound 51, 2-(4-Hydroxyphenyl)-7-(4-methoxyphenylamino)-pyrido[3,2-d]pyrimidine] | 15 | 12 | 15 | 15 | 2 | 10 | 10 | > 10 | 1800 | 7.3 | 134 to 136
